Measurements taken from patent US20210267996A1, “Compounds for inhibition of inflammation” (Children`s Medical Center Corporation, priority 2018, published 2021).
Entries after “also recorded” stand apart in the source; their conditions may differ.

Key:
[1] = system: caspase-1, GSDMD, and pro-IL-1β; test: Caspase-1, GSDMD, pro-IL-1β cleavage and IL-1β secretion by immunoblot, THP-1; format: cell-based, human; details: 30 μM
Procedure: Immunoblot analysis: cell extracts were prepared using RIPA buffer (50 mM Tris-HCl pH 7.4, 150 mM NaCl, 1 mM EDTA, 1% Triton X-100, 0.1% SDS, 0.5% deoxycholate) supplemented with a complete protease inhibitor cocktail (Roche) and a PhosSTOP phosphatase inhibitor cocktail (Roche). Samples were subjected to SDS-PAGE and the resolved proteins were then transferred to a PVDF membrane (Millipore). Immunoblots were probed with indicated antibodies and visualized using a SuperSignal West Pico chemiluminescence ECL kit (Pierce).
To assess which steps in NLRP3-mediated inflammation were inhibited post ASC speck formation, LPS-primed THP-1 cells were treated with vehicle or 30 μM z-VAD-fmk, disulfiram or Bay 11-7082 1 hr before adding nigericin, and cleavage and activation of caspase-1, GSDMD, and pro-IL-1β were analysed by immunoblot of whole cell lysates 30 min later (FIG. 50). Secretion of processed IL-1β was also assessed by immunoblot of culture supernatants. […] Because immunoblots are not quantitative, caspase-1 activity 30 min after adding nigericin was also assessed using a fluorescent substrate in intact cells. […] Next, the effect of z-VAD-fmk, disulfiram and Bay 11-7082 on LPS+nigericin-induced GSDMD pore formation was assessed by immunofluorescence microscopy using a monoclonal antibody that was generated that recognizes both uncleaved GSDMD and its pore form (FIGS. 53, 54, and 64-66). In the absence of any inhibitor, the GSDMD antibody stained both the cytosol and the plasma membrane of LPS plus nigericin treated cells, which formed characteristic pyroptotic bubbles (See Reference 10). […] Thus, disulfiram and Bay 11-7082 inhibit multiple steps leading to canonical inflammasome-induced pyroptosis and inflammatory cytokine release, including priming, inflammasome assembly, inflammatory caspase activation, pro-inflammatory cytokine processing and GSDMD pore formation.
(§1) Cell death was determined by CytoTox96 assay. […] Cell death was determined by CytoTox96 assay. […] Shown are immunoblots of whole cell lysates harvested 0.5 hr later. […] Representative images of ASC specks (arrowheads) and mean±s.d. percent of cells with ASC specks analyzed 20 min later (FIG. 47). Whole cell lysates (WCL) and culture supernatants (Sup) were harvested 30 min after adding nigericin and immunoblotted with the indicated antibodies (FIG. 50). Caspase-1 activity was assayed 30 min after adding nigericin using a cell-permeable fluorescence dye FAM-YVAD-FMK (FIG. 52). […] Representative images of ASC specks (arrowheads) and mean±s.d. percent of cells with ASC specks analyzed 20 min later (FIGS. 48 and 49). Whole cell lysates (WCL) and culture supernatants (Sup), harvested 30 min after adding nigericin, were analyzed by immunoblot (FIG. 51). […] The Figures show representative confocal microscopy images and quantification of proportion of cells with GSDMD membrane staining and pyroptotic bubbles. Arrows indicate GSDMD staining of pyroptotic bubbles. […] FIGS. 57 and 58, dose response curve of the effect of Bay 11-7082 on caspase-1 (FIG. 57) and caspase-11 (FIG. 58) activity against a fluorescent peptide substrate. […] (FIG. 60). FIGS. 61 and 62 show dose response curve of the effect of Bay 11-7082 on liposome leakage induced by 0.3 μM human GSDMD-3C (FIG. 61) or mouse GSDMA3-3C (FIG. 62) plus 0.15 μM 3C protease. […] 2-fold dilutions of Bay 11-7082 from 5-40 μM were used. Graphs show the mean±s.d; data are representative of three independent experiments. *P<0.05, **P<0.01.
Canonical inflammasome assembly activates caspase-1, which cleaves pro-IL-1β and GSDMD, and the latter is needed to release processed IL-1β and to induce pyroptosis. […]

GSDMD pore formation = test: GSDMD membrane staining and pyroptotic bubbles, immunofluorescence; format: cell-based, human; details: 30 μM, 30 min after nigericin
Procedure: (§2) Immunostaining and confocal microscopy: cells grown on coverslips were fixed for 15 min with 4% paraformaldehyde in PBS, permeabilized for 5 min in 0.1% Triton X-100 in PBS and blocked using 5% BSA for 1 hr. Then, cells were stained with the indicated primary antibodies followed by incubation with fluorescent-conjugated secondary antibodies (Jackson ImmunoResearch). Nuclei were counterstained with DAPI (4,6-diamidino-2-phenylindole) (Sigma-Aldrich). Slides were mounted using Aqua-Poly/Mount (Dako). Images were captured using a laser scanning confocal microscope (Olympus Fluoview FV1000 Confocal System) with a 63× water immersion objective and Olympus Fluoview software (Olympus). All confocal images are representative of three independent experiments.
To assess which steps in NLRP3-mediated inflammation were inhibited post ASC speck formation, LPS-primed THP-1 cells were treated with vehicle or 30 μM z-VAD-fmk, disulfiram or Bay 11-7082 1 hr before adding nigericin, and cleavage and activation of caspase-1, GSDMD, and pro-IL-1β were analysed by immunoblot of whole cell lysates 30 min later (FIG. 50). Secretion of processed IL-1β was also assessed by immunoblot of culture supernatants. […] Because immunoblots are not quantitative, caspase-1 activity 30 min after adding nigericin was also assessed using a fluorescent substrate in intact cells. […] Next, the effect of z-VAD-fmk, disulfiram and Bay 11-7082 on LPS+nigericin-induced GSDMD pore formation was assessed by immunofluorescence microscopy using a monoclonal antibody that was generated that recognizes both uncleaved GSDMD and its pore form (FIGS. 53, 54, and 64-66). […]
Cell death was determined by CytoTox96 assay. […] Cell death was determined by CytoTox96 assay. […] Representative images of ASC specks (arrowheads) and mean±s.d. percent of cells with ASC specks analyzed 20 min later (FIG. 47). […] Caspase-1 activity was assayed 30 min after adding nigericin using a cell-permeable fluorescence dye FAM-YVAD-FMK (FIG. 52). […]

caspase-1 = test: Caspase-1 activity assay in cells (FAM-YVAD-FMK); format: cell-based, human; details: 30 μM, 30 min after nigericin
Procedure: Caspase-1 activity assay in cells: to measure caspase-1 activation, THP-1 cells were seeded into 96-well plates and differentiated with PMA. After the indicated treatments, cells were incubated with a fluorescent active caspase-1 substrate FAM-YVAD-FMK (Immunochemistry Technologies). Samples were read on a BioTek Synergy 2 plate reader.
as §1

mouse iBMDMs = test: Processing of caspase-1, GSDMD and IL-1β in iBMDMs (immunoblot); format: cell-based; details: 1 hr time point
Procedure: (§3) FIG. 97 contains a bar graph showing results of an experiment where LPS-primed THP-1 cells, after medium removal, were incubated with probe FAM-YVAD-FMK in FLICA assay buffer for another 0.5 hr before fluorescence reading. iBMDMs were pretreated with disulfiram, Bay 11-7082, necrosulfonamide (NSA) or z-VAD-fmk for 1 hr before treated or not with Nigericin for 0.5 hr. Whole cell lysates and culture supernatants were immunoblotted with the indicated antibodies.
as §3, with “FIG. 98” for “FIG. 97”, “for 1” for “for 0.5”
Canonical inflammasome assembly activates caspase-1, which cleaves pro-IL-1β and GSDMD, and the latter is needed to release processed IL-1β and to induce pyroptosis. To assess which steps in NLRP3-mediated inflammation were inhibited post ASC speck formation, LPS-primed THP-1 cells were treated with vehicle, 30 μM z-VAD-fmk or disulfiram 1 hour before adding nigericin, and cleavage and activation of caspase-1, GSDMD, and pro-IL-1β were analysed by immunoblot of whole cell lysates 30 min later and 1 hr later. Secretion of processed IL-1β was also assessed by immunoblot of culture supernatants. […] The 1 hr time point is relevant as the cell death and IL-1β release measurements used cells stimulated with nigericin for 1 and 2 hrs, respectively.

ASC specks = test: ASC speck formation in LPS-primed THP-1 cells plus nigericin; format: cell-based, human; details: 30 μM, 1 hr before nigericin
Procedure: as §2
Nigericin activates the assembly of the NLRP3 canonical inflammasome using an adaptor called apoptosis-associated speck-like protein containing a caspase recruitment domain (ASC), which can be visualized in immunofluorescent microscopy as specks. When LPS-primed THP-1 cells were treated with nigericin in the absence of inhibitors, ASC specks were detected in 30% of cells (FIG. 36). As expected, speck formation was not inhibited by z-VAD-fmk, since caspase activation occurs downstream of inflammasome assembly.
as §1

THP-1 cells = test: Canonical inflammasome pyroptosis, LPS-primed THP-1 cells plus nigericin; format: cell-based, human; details: THP-1, nigericin

- processing of caspase-1, GSDMD and pro-IL-1β ([1]; 60 min after nigericin): still showed little cleavage
- processing of caspase-1, GSDMD and IL-1β (mouse iBMDMs): still inhibited processing
SMILES: COC(=O)C[C@@H](C(=O)CF)N(C(=O)[C@@H](NC(=O)OCc1ccccc1)C(C)C)[C@@H](C)C(N)=O [z-VAD-fmk]
- processed IL-1β in culture supernatants [1]: only detected in the culture supernatants in the absence of any inhibitor; also recorded: only detected in culture supernatants in the absence of either inhibitor
- caspase-1, GSDMD and pro-IL-1β cleavage ([1]; 30 min after nigericin): dramatically reduced; also recorded: processing was reduced
- GSDMD membrane staining and pyroptotic bubbles (GSDMD pore formation): completely blocked
- caspase-1 activity in intact cells (caspase-1): completely inhibited
- ASC speck formation (ASC specks): not inhibited
- inhibition of canonical inflammasome pyroptosis (THP-1 cells): inhibits the canonical inflammasome pathway
